Counter-ions that a name gives are not always drawn. Like-named read-outs stand apart in the source and are kept apart here.
Columns and labels:
adrenergic receptor α1B = target: T1, adrenergic receptor α1B (Rattus norvegicus, UniProt P15823); test: Radioligand binding to adrenergic receptor α1B ([3H] Prazosin, rat liver membranes); conditions: for nH: Receptor α1B
T1 construct: membrane species from rat liver (rat of Wistar breed) are prepared; from tissue; host or cells: rat (Wistar) liver
T1 sequence (P15823 1-515): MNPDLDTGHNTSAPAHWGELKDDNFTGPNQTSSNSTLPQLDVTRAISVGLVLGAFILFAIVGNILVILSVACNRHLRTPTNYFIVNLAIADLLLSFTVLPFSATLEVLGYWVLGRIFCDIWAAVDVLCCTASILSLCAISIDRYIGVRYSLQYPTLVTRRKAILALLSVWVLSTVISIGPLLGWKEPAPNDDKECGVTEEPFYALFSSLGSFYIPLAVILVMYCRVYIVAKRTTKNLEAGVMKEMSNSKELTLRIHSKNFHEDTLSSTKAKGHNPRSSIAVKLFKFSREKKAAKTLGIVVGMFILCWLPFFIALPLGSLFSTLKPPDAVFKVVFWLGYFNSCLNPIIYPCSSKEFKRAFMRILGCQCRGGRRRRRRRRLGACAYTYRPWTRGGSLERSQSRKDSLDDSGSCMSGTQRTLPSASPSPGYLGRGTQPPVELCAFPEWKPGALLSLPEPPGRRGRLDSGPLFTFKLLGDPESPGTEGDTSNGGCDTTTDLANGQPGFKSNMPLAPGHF
From the text: Species heterogeneity of hepatic α1A-, α1B-, and α1C-subtypes. Biochem Biophys Res Commun. […] Prazosin is used as positive control.

human D2S receptor = target: T2, human D2S receptor (Homo sapiens, UniProt P14416); test: Radioligand binding to dopamine receptor D2S ([3H] Spiperone, CHO membranes)
T2 construct: expressed in transfected cells; host or cells: CHO
T2 sequence (P14416 1-414 isoform P14416-2): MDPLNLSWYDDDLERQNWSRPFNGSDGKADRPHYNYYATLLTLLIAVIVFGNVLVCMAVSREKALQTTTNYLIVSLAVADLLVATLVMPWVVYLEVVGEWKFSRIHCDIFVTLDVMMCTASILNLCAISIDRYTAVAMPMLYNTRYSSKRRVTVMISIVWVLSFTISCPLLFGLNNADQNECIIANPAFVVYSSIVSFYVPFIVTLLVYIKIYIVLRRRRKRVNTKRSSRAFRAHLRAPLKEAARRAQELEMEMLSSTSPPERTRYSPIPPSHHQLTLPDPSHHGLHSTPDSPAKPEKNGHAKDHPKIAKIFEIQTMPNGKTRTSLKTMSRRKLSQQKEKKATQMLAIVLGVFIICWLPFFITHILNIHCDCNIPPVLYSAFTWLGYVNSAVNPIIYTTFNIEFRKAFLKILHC
From the text: 7-C. […] For this purpose sDNA of human D2S receptor is expressed in CHO cells, as described in [Hayes G, Biden TJ, Selbie LA and Shine J, Structural subtypes of the dopamine D2 receptor are functionally distinct. […] Mol Endocrinol. […] Mol Endocrinol. […] Spiperone is used as positive control.

human D3 receptor = target: T3, human D3 receptor (Homo sapiens, UniProt P35462); test: Radioligand binding to dopamine receptor D3 ([3H] Spiperone, CHO membranes)
T3 construct: expressed in transfected cells; host or cells: CHO
T3 sequence (P35462 whole entry): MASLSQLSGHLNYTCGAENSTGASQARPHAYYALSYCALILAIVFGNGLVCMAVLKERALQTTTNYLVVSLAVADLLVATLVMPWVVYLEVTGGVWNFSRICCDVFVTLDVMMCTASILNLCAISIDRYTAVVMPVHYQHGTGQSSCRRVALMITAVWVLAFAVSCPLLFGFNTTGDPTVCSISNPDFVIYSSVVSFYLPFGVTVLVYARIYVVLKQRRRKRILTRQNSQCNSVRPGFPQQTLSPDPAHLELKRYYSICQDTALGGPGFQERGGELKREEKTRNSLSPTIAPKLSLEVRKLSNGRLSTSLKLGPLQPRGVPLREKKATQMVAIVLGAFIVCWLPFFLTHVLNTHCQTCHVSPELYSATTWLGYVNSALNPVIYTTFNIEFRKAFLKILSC
From the text: For this purpose sDNA of human D3 receptor is expressed in CHO cells, as it was described in [Sokoloff P, Giros B, Martres M-P, Bouthenet M-L and Schwartz J-C. Molecular cloning and characterization of novel dopamine receptor (D3) as target for neuroleptics. Nature. […] Molecular cloning and characterization of novel dopamine receptor (D3) as target for neuroleptics. Nature. […] Spiperone is used as positive control.

human D4.2 receptor = target: T4, human D4.2 receptor (Homo sapiens, UniProt P21917, DEL265-296); test: Radioligand binding to dopamine receptor D4.2 ([3H] Spiperone, CHO-K1 membranes); conditions: read-out: Dopamine receptors, % inhibition D4.2
T4 construct: expressed in transfected cells; host or cells: CHO-K1
T4 sequence (P21917 with tags, fused parts or gaps DEL265-296): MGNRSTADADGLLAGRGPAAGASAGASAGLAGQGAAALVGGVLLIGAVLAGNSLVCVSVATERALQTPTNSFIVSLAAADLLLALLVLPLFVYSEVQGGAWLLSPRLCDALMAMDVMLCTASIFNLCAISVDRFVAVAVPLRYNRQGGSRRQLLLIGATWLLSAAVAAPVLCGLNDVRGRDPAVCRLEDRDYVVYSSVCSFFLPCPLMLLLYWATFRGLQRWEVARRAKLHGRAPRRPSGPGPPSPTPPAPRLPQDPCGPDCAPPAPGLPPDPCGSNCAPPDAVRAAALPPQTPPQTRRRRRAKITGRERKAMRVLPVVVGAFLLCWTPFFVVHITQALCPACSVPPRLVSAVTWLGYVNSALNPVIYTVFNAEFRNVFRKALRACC
Method: Screening of the disclosed compounds for potential ability to interact with dopamine receptor D4.2 is carried out by method of radioligand binding. […] From the cells transfected in this way membrane species are prepared by homogenization of these cells in glass homogenizer with the subsequent separation of plasmatic membranes from cell nuclei, mitochondrias and cell wreckages by differential centrifugation. […] After incubation samples are filtered in vacuo on glass-microfiber filters G/F (Millipor, USA), filters are washed three times with cold solution of medium and radioactivity is measured by scintillation counter MicroBeta 340 (Perkin Elmer, USA). Nonspecific binding which makes up 10% of the overall binding is determined by incubation of membrane species with radioligand in the presence of 10 µM of Haloperidol.
Spiperone is used as positive control. Tested compounds' binding to the receptor is determined by their ability to displace radioligand and expressed in percent of displacement (%I). Values of %I are calculated according to the following equation: %I = (TA-CA)/(TA-NA)*100, [formula] wherein: TA - is overall radioactivity in the presence of radioligand only, CA - is radioactivity in the presence of radioligand and tested compound and NA - is radioactivity in the presence of radioligand and Haloperidol (10 µM).

human H1 receptor = target: T5, human H1 receptor (Homo sapiens, UniProt P35367); test: Radioligand binding to histamine receptor H1 ([3H] Pyrilamine, CHO-K1 membranes); conditions: for nH: histamine H1 receptors
T5 construct: expressed in transfected cells; host or cells: CHO-K1
T5 sequence (P35367 whole entry): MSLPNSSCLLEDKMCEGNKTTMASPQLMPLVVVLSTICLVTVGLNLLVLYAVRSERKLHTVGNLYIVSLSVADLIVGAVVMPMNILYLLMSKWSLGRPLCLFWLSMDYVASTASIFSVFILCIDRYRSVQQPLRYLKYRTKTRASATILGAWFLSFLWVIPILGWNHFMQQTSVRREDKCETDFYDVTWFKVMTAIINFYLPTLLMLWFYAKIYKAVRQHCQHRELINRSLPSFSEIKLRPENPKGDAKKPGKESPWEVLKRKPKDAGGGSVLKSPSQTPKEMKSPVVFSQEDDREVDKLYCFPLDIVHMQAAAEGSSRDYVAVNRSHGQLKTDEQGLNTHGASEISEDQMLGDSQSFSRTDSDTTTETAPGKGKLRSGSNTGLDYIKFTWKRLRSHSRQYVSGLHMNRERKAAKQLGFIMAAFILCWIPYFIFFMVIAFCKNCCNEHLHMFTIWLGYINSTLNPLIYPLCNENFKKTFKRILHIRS
From the text: Biochem Biophys Res Comm. 197(3): 1601-1608, 1993]. […] Biochem Biophys Res Comm. 197(3): 1601-1608, 1993].
Pyrilamine is used as positive control.

recombinant human 5-HT1A = target: T6, recombinant human 5-HT1A (Homo sapiens, UniProt P08908); test: Radioligand binding to serotonin receptor 5-HT1A ([3H] 8-OH-DPAT, CHO membranes); conditions: for inhibition at 10 µM: read-out: 5-HT1A % inhibition
T6 construct: expressed in transfected cells; host or cells: CHO
T6 sequence (P08908 1-422): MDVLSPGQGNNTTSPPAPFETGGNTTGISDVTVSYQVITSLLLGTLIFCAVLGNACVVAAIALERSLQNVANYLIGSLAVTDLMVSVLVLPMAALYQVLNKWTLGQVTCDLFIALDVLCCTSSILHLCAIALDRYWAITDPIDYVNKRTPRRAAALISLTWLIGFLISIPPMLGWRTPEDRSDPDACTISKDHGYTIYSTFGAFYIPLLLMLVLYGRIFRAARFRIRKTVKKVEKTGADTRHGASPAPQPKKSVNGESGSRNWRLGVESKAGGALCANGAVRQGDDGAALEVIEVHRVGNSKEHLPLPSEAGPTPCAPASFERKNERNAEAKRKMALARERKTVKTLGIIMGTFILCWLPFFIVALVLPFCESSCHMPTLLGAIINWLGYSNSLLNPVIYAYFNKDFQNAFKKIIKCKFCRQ
From the text: J Pharmacol Exp Ther. 306(1): 301-309, 2003]. […] Metergoline is used as positive control.

[1] = target: T7, serotonin receptor 5-HT1B (Rattus norvegicus, UniProt P28564); test: Radioligand binding to serotonin receptor 5-HT1B ([125I] cyanopindolol, rat brain cortex membranes)
T7 construct: membrane species are prepared from rat brains (Wistar) by homogenization of species of rat brain-cortices; from tissue; host or cells: rat (Wistar) brain cortex
T7 sequence (P28564 whole entry): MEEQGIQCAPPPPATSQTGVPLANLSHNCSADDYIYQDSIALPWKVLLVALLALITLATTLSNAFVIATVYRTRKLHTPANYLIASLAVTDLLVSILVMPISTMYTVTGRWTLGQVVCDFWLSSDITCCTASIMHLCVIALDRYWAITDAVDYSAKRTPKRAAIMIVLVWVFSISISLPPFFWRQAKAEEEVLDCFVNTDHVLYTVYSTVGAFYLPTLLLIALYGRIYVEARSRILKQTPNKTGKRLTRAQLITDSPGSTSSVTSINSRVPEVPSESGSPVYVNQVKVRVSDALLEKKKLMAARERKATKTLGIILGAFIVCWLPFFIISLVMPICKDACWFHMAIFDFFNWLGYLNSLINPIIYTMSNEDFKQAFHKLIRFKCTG
From the text: Serotonin is used as positive control.

[2] = target: T8, recombinant human 5-HT6 receptor (Homo sapiens, UniProt P50406); test: Radioligand binding to serotonin receptor 5-HT6 ([3H] Lysergic acid diethylamide, HeLa membranes)
T8 construct: expressed in transfected cells; host or cells: HeLa
T8 sequence (P50406 whole entry): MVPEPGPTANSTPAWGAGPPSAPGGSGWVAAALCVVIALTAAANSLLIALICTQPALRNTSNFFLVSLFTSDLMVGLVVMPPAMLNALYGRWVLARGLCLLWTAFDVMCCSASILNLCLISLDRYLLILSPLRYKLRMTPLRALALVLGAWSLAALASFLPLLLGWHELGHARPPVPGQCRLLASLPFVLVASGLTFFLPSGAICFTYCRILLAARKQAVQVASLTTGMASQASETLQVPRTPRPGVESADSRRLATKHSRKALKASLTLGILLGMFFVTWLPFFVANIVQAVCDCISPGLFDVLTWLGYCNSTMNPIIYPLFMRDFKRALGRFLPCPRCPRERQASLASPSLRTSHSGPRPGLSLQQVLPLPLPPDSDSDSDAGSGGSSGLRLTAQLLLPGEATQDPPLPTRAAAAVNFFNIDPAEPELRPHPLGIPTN
From the text: Mol Pharmacol. 43:320-327, 1993]. […] Methiothepin is used as positive control.

human 5-HT7 receptor = target: T9, human 5-HT7 receptor (Homo sapiens, UniProt P34969); test: Radioligand binding to serotonin receptor 5-HT7 ([3H] Lysergic acid diethylamide, CHO membranes)
T9 construct: expressed in transfected cells; host or cells: CHO
T9 sequence (P34969 whole entry): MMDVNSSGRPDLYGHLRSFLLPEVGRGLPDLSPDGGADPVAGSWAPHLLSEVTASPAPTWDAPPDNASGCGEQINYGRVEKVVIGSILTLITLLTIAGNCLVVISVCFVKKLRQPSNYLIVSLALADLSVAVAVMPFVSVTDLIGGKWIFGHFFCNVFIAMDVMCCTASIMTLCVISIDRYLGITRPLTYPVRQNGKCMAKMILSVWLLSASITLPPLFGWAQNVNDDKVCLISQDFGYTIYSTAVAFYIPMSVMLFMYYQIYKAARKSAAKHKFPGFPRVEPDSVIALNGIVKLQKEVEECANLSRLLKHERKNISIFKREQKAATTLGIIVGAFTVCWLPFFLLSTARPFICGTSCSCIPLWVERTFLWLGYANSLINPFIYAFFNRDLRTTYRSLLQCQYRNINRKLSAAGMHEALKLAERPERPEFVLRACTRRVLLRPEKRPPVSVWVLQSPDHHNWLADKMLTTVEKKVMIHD
From the text: For this purpose sDNA of human 5-HT7 receptor is expressed in CHO cells as it was described in [Shen Y, Monsma FJ Jr, Metcalf MA, Jose PA, Hamblin MW, and Sibley DR. […] J. Biol. Chem. 1993, 268, 18200 - 18204]. […] J. Pharmacol. Exp. Ther. 1994, 268:1403-1410]. […] Methiothepin is used as positive control.

imidazoline receptor I2 = test: Radioligand binding to imidazoline receptor I2 ([3H] Idazoxan, rat brain membranes)
Method: For this purpose membrane species are prepared from rat (Wistar) brain homogenates by homogenization of them in glass homogenizer with the subsequent separation of plasmatic membranes from cell nuclei, mitochondrias and cell wreckages by differential centrifugation. […] After incubation the samples are filtered in vacuo on glass-microfiber filters G/F (Millipor, USA), filters are washed three times with cold solution of medium and radioactivity is measured by scintillation counter MicroBeta 340 (Perkin Elmer, USA). […] Idazoxan is used as positive control.
The tested compounds' binding to the receptor is determined by their ability to displace the radioligand and expressed in percent of displacement (%I). Values of %I are calculated according to the following equation: %I = (TA-CA)/(TA-NA)*100, [formula] wherein: TA - is the overall radioactivity in the presence of radioligand only, CA - is the radioactivity in the presence of radioligand and tested compound and NA - is a radioactivity in the presence of radioligand and Idazoxan (1 µM).

[3] = read-out: α-Adrenoceptor, % inhibition α1B
[4] = read-out: Dopamine receptors, % inhibition D2S
[5] = read-out: Dopamine receptors, % inhibition D3
[6] = read-out: Histamine receptors, % inhibition H1, 10 µM ligand
[7] = last block of Table 11: receptor printed 5-HT6 in r18, cell blank in r19-r21

Cc1ccc2c(c1)[C@@H]1CN(C)CCC[C@@H]1N2CCc1ccc(C)nc1 (relative stereo) [1.6.1(2)·3HCl]
inhibition at 10 µM (adrenergic receptor α1B; [3]): 93%
inhibition at 10 µM (human D2S receptor; [4]): 31%
inhibition at 10 µM (human D3 receptor; [5]): 41%
inhibition at 10 µM (human D4.2 receptor): -11%
inhibition at 10 µM (human H1 receptor; [6]): 102%
inhibition at 10 µM (recombinant human 5-HT1A): -9%
inhibition at 10 µM ([1]; read-out: 5-HT1B % inhibition): -6%
inhibition at 1 µM ([2]; read-out: 5-HT6 % inhibition): 76%
inhibition at 10 µM ([2]; read-out: 5-HT6 % inhibition): -10%
inhibition at 10 µM (human 5-HT7 receptor; read-out: 5-HT7 % inhibition): 8%
% inhibition (imidazoline receptor I2; 10 µM ligand): 80%

Cc1ccc2c(c1)c1c(n2CCc2ccccn2)CCN(C)C1 [1.1.2(2-3)·2HCl]
inhibition at 10 µM (adrenergic receptor α1B; [3]): 98%
inhibition at 3 µM (human D2S receptor; [4]): 77%
inhibition at 3 µM (human D3 receptor; [5]): 78%
inhibition at 100 µM (human D4.2 receptor): 71%
inhibition at 1 µM ([1]; read-out: 5-HT1B % inhibition): 65%
IC50 [2]: 0.00214 µM
Ki [2]: 0.00123 µM
nH ([2]; 5-HT6): 0.744
nH [2, 7]: 0.655
% inhibition (imidazoline receptor I2; 10 µM ligand): 88%

CN1CCc2c(c3ccccc3n2Cc2ccccc2)C1.Cl [1.9(1)·HCl, 5-benzyl-2-methyl-2,3,4,5-tetrahydro-1H-pyrido[4,3-b]indole hydrochloride]
inhibition at 10 µM (adrenergic receptor α1B; [3]): 70%
inhibition at 10 µM (human H1 receptor; [6]): 97%
inhibition at 10 µM ([1]; read-out: 5-HT1B % inhibition): 13%
IC50 [2]: 0.11 µM
Ki [2]: 0.0632 µM
nH ([2]; 5-HT6): 1.04
nH [2, 7]: 1.32
inhibition at 10 µM ([2]; read-out: 5-HT6 % inhibition): 71%
inhibition at 0.3 µM (human 5-HT7 receptor; read-out: 5-HT7 % inhibition): 76%
inhibition at 10 µM (human 5-HT7 receptor; read-out: 5-HT7 % inhibition): 91%
% inhibition (imidazoline receptor I2; 3 µM ligand): 75 (3 µM) %
IC50 (imidazoline receptor I2; hydrochloride): 0.994 µM
Ki (imidazoline receptor I2; hydrochloride): 0.662 µM

Cc1ccc2c(c1)c1c(n2CCc2ccccc2)CCN(C)C1 [1.1.2(1-2)·HCl, 2,8-dimethyl-5-phenethyl-1,2,3,4-tetrahydro-1H-pyrido[4,3-b]indole hydrochloride]
inhibition at 10 µM (adrenergic receptor α1B; [3]): 101%
inhibition at 10 µM (recombinant human 5-HT1A): 84%
inhibition at 10 µM ([1]; read-out: 5-HT1B % inhibition): 82%
IC50 (imidazoline receptor I2): 0.268 µM
Ki (imidazoline receptor I2): 0.179 µM
% inhibition (imidazoline receptor I2; 10 µM ligand): 93%

Cc1ccc2c(c1)[C@@H]1CN(C)CCC[C@@H]1N2CCc1cccnc1 (relative stereo) [1.6.1(1)·3HCl]
inhibition at 10 µM (adrenergic receptor α1B; [3]): 94%
inhibition at 10 µM (human D2S receptor; [4]): 42%
inhibition at 10 µM (human D3 receptor; [5]): 34%
inhibition at 10 µM (human D4.2 receptor): -6%
inhibition at 10 µM (human H1 receptor; [6]): 100%
inhibition at 1 µM ([2]; read-out: 5-HT6 % inhibition): 84%
% inhibition (imidazoline receptor I2; 10 µM ligand): 80%

Cc1ccc2c(c1)c1c(n2CCc2ccccn2)CCCN(C)C1 [1.2.2(2-2)]
α-Adrenoceptor, % inhibition α1B (adrenergic receptor α1B; 10 µM ligand): 80%
5-HT1A % inhibition (recombinant human 5-HT1A; 10 µM ligand): -5%
5-HT1B % inhibition ([1]; 10 µM ligand): 6%
5-HT6 % inhibition ([2]; 10 µM ligand): 21%
5-HT7 % inhibition (human 5-HT7 receptor; 10 µM ligand): 74%
% inhibition (imidazoline receptor I2; 10 µM ligand): 80%

CN1CCc2c(c3ccccc3n2Cc2ccccc2)C1 [1.9(1)·1/2NDSA, bis-(5-benzyl-2-methyl-2,3,4,5-tetrahydro-1H-pyrido[4,3-b]indole) naphthalene-1,5-disulfonate]
nH (adrenergic receptor α1B): 0,956
inhibition at 3 µM (adrenergic receptor α1B; [3]): 62%
nH (human D2S receptor; Receptor D2S): 0.879
inhibition at 10 µM (human D2S receptor; [4]): 51%
nH (human D3 receptor; Receptor D3): 1.04
inhibition at 10 µM (human D3 receptor; [5]): 65%
Histamine receptors, % inhibition H1 (human H1 receptor; 10 µM ligand): 105%
nH (human H1 receptor): 0.789
inhibition at 0.3 µM ([1]; read-out: 5-HT1B % inhibition): 4%
nH ([2]; 5-HT6): 1.07
inhibition at 0.3 µM ([2]; read-out: 5-HT6 % inhibition): 78%
IC50 (imidazoline receptor I2): 0.169 µM
Ki (imidazoline receptor I2): 0.11 µM
% inhibition (imidazoline receptor I2; 0.3 µM ligand): 87(0.3 µM) %

Cc1ccc2c(c1)c1c(n2CCc2ccc(C)nc2)CCN(C)C1 [1.1.2(4-2)·2HCl]
inhibition at 10 µM (adrenergic receptor α1B; 10 µM ligand, read-out: α-Adrenoceptor, % inhibition α1B): 101%
nH (adrenergic receptor α1B): 1.54
Dopamine receptors, % inhibition D2S (human D2S receptor; 10 µM ligand): 80%
Ki (human D2S receptor; Receptor D2S): 0.629 µM
nH (human D2S receptor; Receptor D2S): 0.724
inhibition at 10 µM (human D3 receptor; 10 µM ligand, read-out: Dopamine receptors, % inhibition D3): 64%
inhibition at 10 µM (human D4.2 receptor; 10 µM ligand): 54%
inhibition at 10 µM (human H1 receptor; 10 µM ligand, read-out: Histamine receptors, % inhibition H1): 100%
nH (human H1 receptor): 1.01
inhibition at 10 µM (recombinant human 5-HT1A; 10 µM ligand): 9%
inhibition at 10 µM ([1]; 10 µM ligand, read-out: 5-HT1B % inhibition): 19%
inhibition at 10 µM ([2]; 10 µM ligand, read-out: 5-HT6 % inhibition): 90%
inhibition at 10 µM (human 5-HT7 receptor; 10 µM ligand, read-out: 5-HT7 % inhibition): 96%
IC50 (imidazoline receptor I2): 0.31 µM
Ki (imidazoline receptor I2): 0.21 µM
% inhibition (imidazoline receptor I2; 10 µM ligand): 98%

Cc1ccc(CCn2c3c(c4cc(C)ccc42)CN(C)CC3)cc1 [1.1.2(1-3), 2,8-dimethyl-5-[2-(4-methylphenyl)-ethyl]-1,2,3,4-tetrahydro-1H-pyrido[4,3-b]indole]
nH (adrenergic receptor α1B): 1,13
5-HT1A % inhibition (recombinant human 5-HT1A; 10 µM ligand): 68%
5-HT1B % inhibition ([1]; 10 µM ligand): 59%
5-HT7 % inhibition (human 5-HT7 receptor; 10 µM ligand): 98%
% inhibition (imidazoline receptor I2; 10 µM ligand): 93%

Reference: patent EP2236511A2, “LIGANDS OF ALPHA-ADRENOCEPTORS AND OF DOPAMINE, HISTAMINE, IMIDAZOLINE AND SEROTONIN RECEPTORS AND THE USE THEREOF” (priority 2007, dated 2009)
